Data set [1] concerns SMMC-7721. Kind of data set: Induction of apoptosis in human SMMC-7721 cells assessed as viable cells at 15 uM incubated for 24 hrs in presence of zVAD by Annexin V-FITC and propidium iodide staining based flow cytometric analysis (reference value: 99.2 %). Particulars: read-out: Activity. The class given is functional.
The test system of data set [2] is SMMC-7721. Description: Antitumor activity against human GFP-stained SMMC-7721 cells inoculated in zebrafish larvae assessed as reduction in tumor growth at < 10 uM incubated for 48 hrs by confocal laser scanning microscopy. The data set is classed as functional, cell-based.
The nature of data set [3]: Toxicity in Zebrafish embryo assessed as reduction in survival rate at >= 30 uM incubated for 48 hrs by microscopic analysis relative to control. Particulars: zebrafish embryos. Further details: species or system Danio rerio.
In data set [4] the test system is SMMC-7721. Kind of data set: Induction of autophagy in human SMMC-7721 cells assessed as appearance of sparse matrix at 10 uM incubated for 24 hrs by TEM analysis. The data set is classed as functional, cell-based.
For data set [5], the system named is SMMC-7721. Kind of data set: Induction of apoptosis in human SMMC-7721 cells assessed as viable cells at 15 uM incubated for 24 hrs by Annexin V-FITC and propidium iodide staining based flow cytometric analysis (reference value: 99.2 %). The class given is functional. Particulars: read-out: Activity.
Data set [6] has as its system SMMC-7721. Description: Induction of apoptosis in human SMMC-7721 cells assessed as early apoptotic cells at 5 uM incubated for 24 hrs by Annexin V-FITC and propidium iodide staining based flow cytometric analysis (reference value: 0.28 %). The class given is functional.
Data set [7] relates to HepG2. Description: Antiproliferative activity against human HepG2 cells assessed as inhibition of cell growth incubated for 48 hrs by CCK-8 reagent based spectrophotometric analysis. The conditions noted are these: HepG2, 48 h. The data set is classed as functional.
Data set [8] concerns SMMC-7721. Description: Induction of apoptosis in human SMMC-7721 cells assessed as necrotic cells at 15 uM incubated for 24 hrs by Annexin V-FITC and propidium iodide staining based flow cytometric analysis (reference value: 0.65 %). The class given is functional. (In general: In flow cytometry, cells or beads pass a laser one at a time.)
For data set [9], the system named is MCF7. Description: Antiproliferative activity against human MCF7 cells assessed as inhibition of cell growth incubated for 48 hrs by CCK-8 reagent based spectrophotometric analysis. The data set is classed as functional. The conditions noted are these: MCF7, 48 h. (Formazan colour is commonly taken as a measure of viable cells.)
The test system of data set [10] is SMMC-7721. Description: Induction of apoptosis in human SMMC-7721 cells assessed as early apoptotic cells at 20 uM incubated for 24 hrs by Annexin V-FITC and propidium iodide staining based flow cytometric analysis (reference value: 0.28 %). The data set is classed as functional.
For data set [11], the system named is SMMC-7721. Description: Induction of apoptosis in human SMMC-7721 cells at 20 uM incubated for 24 hrs by Annexin V-FITC and propidium iodide staining based flow cytometric analysis relative to control. The class given is functional.
Data set [12] relates to SMMC-7721. Kind of data set: Antitumor activity against human GFP-stained SMMC-7721 cells inoculated in zebrafish larvae assessed as reduction in tumor growth by measuring survival rate at 10 uM incubated for 48 hrs by confocal laser scanning microscopy. The class given is functional.
In data set [13] the test system is SMMC-7721. Kind of data set: Induction of apoptosis in human SMMC-7721 cells assessed as late apoptotic cells at 20 uM incubated for 24 hrs by Annexin V-FITC and propidium iodide staining based flow cytometric analysis (reference value: 0.14 %). The class given is functional.
Data set [14] has as its system SMMC-7721. Kind of data set: Induction of apoptosis in human SMMC-7721 cells assessed as early apoptotic cells at 10 uM incubated for 24 hrs by Annexin V-FITC and propidium iodide staining based flow cytometric analysis (reference value: 0.28 %). The class given is functional.
Data set [15] has as its system KYSE-150 cell line. Kind of data set: Antiproliferative activity against human KYSE-150 cell line assessed as inhibition of cell growth incubated for 48 hrs by CCK-8 reagent based spectrophotometric analysis. The data set is classed as functional. The conditions noted are these: KYSE-150, 48 h.
A short description of data set [16]: Toxicity in BALB/c mouse xenografted with human SMMC-7721 cells assessed as change in body weight at 10 mg/kg,ip administrated daily for 3 weeks. The data set is classed as organism-based. The conditions noted are these: in vivo, 504 h.
The nature of data set [17]: Aqueous solubility of the compound in […] by HPLC analysis. The data set is classed as physicochemical.
Data set [18] concerns SMMC-7721. Kind of data set: Induction of apoptosis in human SMMC-7721 cells assessed as upregulation of LC3 expression incubated for 24 hrs by Western blotting analysis. The data set is classed as functional, cell-based.
The subject of data set [19] is SMMC-7721. Kind of data set: Antitumor activity against human SMMC-7721 cells xenografted in BALB/c mouse assessed as reduction in tumor growth at 10 mg/kg,ip administrated for 3 weeks. The class given is functional, organism-based. Background: A xenograft is tissue or cells of one species grown in another, often human tumour cells in immunodeficient mice.
Data set [20] concerns SMMC-7721. Kind of data set: Antitumor activity against human SMMC-7721 cells xenografted in BALB/c mouse assessed as reduction in tumor weight at 10 mg/kg,ip administrated daily for 3 weeks (reference value: 0.573 +/- 0.137 g). The data set is classed as functional.
Data set [21] deals with SMMC-7721. Kind of data set: Antitumor activity against human SMMC-7721 cells xenografted in BALB/c mouse assessed as inhibition of tumor growth at 10 mg/kg,ip administrated daily for 3 weeks relative to control. The data set is classed as functional. Details: scale not given: the % may be the effect or the level left.
Data set [22] relates to SMMC-7721. Kind of data set: Induction of apoptosis in human SMMC-7721 cells assessed as upregulation of Bax/Bcl-2 ratio at 20 uM incubated for 24 hrs by Western blotting analysis. The class given is functional, cell-based.
Data set [23] has as its system SMMC-7721. Kind of data set: Antitumor activity against human GFP-stained SMMC-7721 cells inoculated in zebrafish larvae assessed as reduction in tumor growth at 5 to 20 uM incubated for 48 hrs by confocal laser scanning microscopy. Particulars: dose 5-20 µM. The data set is classed as functional, cell-based.
A short description of data set [24]: Inhibition of PI3K/AKT/mTOR signalling pathway in human SMMC-7721 cells at 10 uM incubated for 24 hrs by transcriptome analysis. The class given is cell-based.
In data set [25] the test system is SMMC-7721. Kind of data set: Induction of apoptosis in human SMMC-7721 cells assessed as upregulation of Bax/Bcl-2 ratio incubated for 24 hrs by Western blotting analysis. The data set is classed as functional, cell-based.
Data set [26] deals with SMMC-7721. Kind of data set: Induction of apoptosis in human SMMC-7721 cells assessed as upregulation of Bax expression incubated for 24 hrs by Western blotting analysis. The class given is functional, cell-based.
The test system of data set [27] is SMMC-7721. Kind of data set: Antitumor activity against human SMMC-7721 cells xenografted in BALB/c mouse assessed as reduction in tumor weight at 10 mg/kg,ip administrated for 3 weeks. The data set is classed as functional, organism-based.
Data set [28] relates to SMMC-7721. Kind of data set: Induction of apoptosis in human SMMC-7721 cells assessed as downregulation of BCL-2 expression at 15 uM incubated for 24 hrs by Western blotting analysis. The data set is classed as functional, cell-based.

Two compounds from ChEMBL document CHEMBL5608177, “Antitumor activity and transcriptome sequencing (RNA-seq) analyses of hepatocellular carcinoma cells in response to exposure triterpene-nucleoside conjugates” (Eur J Med Chem, 2024) can be followed below.

What is called IC50 is the concentration at which inhibition is half-maximal. The solubility is the dissolved amount per volume that the medium holds.

In brackets after ≈: the same amount, converted by molar mass. Activity calls are given as the source filed them. The calls are words filed in the database; no cut-off is given here. A value given as a limit tells only on which side of the number the result lay.

With `C=C(C)[C@@H]1CC[C@]2(C(=O)OC)CC[C@]3(C)[C@H](CC[C@@H]4[C@@]5(C)C[C@@H](Cc6cn([C@]7(CO)O[C@@H](n8ccc(O)nc8=O)[C@@H](F)[C@@H]7O)nn6)C(=O)C(C)(C)[C@@H]5CC[C@]43C)[C@@H]12`, the viability at 15 µM in data set [1] turned out to be 82%; in data set [5] it was 72.8%. Moreover, the outcome in data set [2] was inactive. Further, the survival at 48 h, 30 µM in data set [3] was under 25%. In [4], the outcome was Active. In addition, the Activity in [6] stood at 0.13%; in data set [8] it was 15.7%; in data set [10], 0.43%; in data set [11] it was 0.42%; in data set [12], 85%; in [13], 17.5%. In addition, in data set [14], the Activity is on record as 0.35%. The figures for the IC50 in data set [7], in data set [9] and in [15] were 23.7 µM, 18.6 µM and 10.6 µM, respectively.

Regarding `C=C(C)[C@@H]1CC[C@]2(C(=O)OC)CC[C@]3(C)[C@H](CC[C@@H]4[C@@]5(C)C[C@@H](Cc6cn([C@H]7C[C@H](n8cc(C)c(O)nc8=O)O[C@@H]7CO)nn6)C(=O)C(C)(C)[C@@H]5CC[C@]43C)[C@@H]12`, the Activity entry in data set [16] was “Non-Toxic”; in [18] it was “Dose-Dependent Effect”; in data set [20] it was 0.275 g; in data set [21], 52%; in data set [25], “Dose-Dependent Effect”; in data set [6], 0.24%. Also, the Activity entry was “Dose-Dependent Effect” in data set [26]; 16.6% in [8]; 0.089% in data set [10]; 0.54% in data set [11]; 18.9% in data set [13]; 0.48% in data set [14]. The compound also yielded a solubility in data set [17] of 2.56 µM (≈ 1.98 µg/mL). Moreover, the viability at 15 µM in data set [1] came to 87.9%; in data set [5] it was 68.2%. The outcome in data set [19], in [22], in [23], in data set [4], in data set [27] and in [28] was Active. Moreover, in data set [24], the inhibition result was “Active”. Also, the values for the IC50 in data set [7], in data set [9] and in data set [15] were 9.55 µM, 9.78 µM and 5.68 µM, respectively.
